Common to all, as to assay: LPS-stimulated whole bovine blood assay, MSD cytokine detection
Format in all cases: cell-based

In one test the test system is IL-6. As to conditions: Bos taurus, read-out: IL-6 (IC50 μM). The source says:
In order to correlate RNA sequencing data to cytokine changes the whole blood assay was utilized. […] The enhancement result represents an overall stimulation of cytokine levels due to cellular stress or potential toxicity with increasing concentrations of the compound, representing a typical bell shape response curve for immunomodulatory activity.

The test system of a further test is IL-1β. The following applies: overstimulation of IL-1β, LPS-stimulated bovine whole blood.
The next test deals with TNF-α. The following applies: Bos taurus, read-out: TNF-α (IC50 μM).
The mark [1] stands for this setting: LPS-stimulated bovine whole blood.

Read-outs that look alike come from different tables or passages of the source.

For `CC[C@H]1OC(=O)[C@H](C)[C@@H](O[C@H]2C[C@@](C)(OC)[C@](O)(CNCCCN3CCCCC3)[C@H](C)O2)[C@H](C)[C@@H](O[C@@H]2O[C@H](C)C[C@H](N(C)C(=O)N(C)c3ccccc3)[C@H]2O)[C@](C)(O)C[C@@H](C)CN[C@H](C)[C@@H](O)[C@]1(C)O` [Example H-38, 1-((2S,3R,4S,6R)-2-(((2R,3S,4R,5R,8R,10R,11R,12S,13S,14R)-2-ethyl-3,4,10-trihydroxy-13-(((2R,4R,5S,6S)-5-hydroxy-4-methoxy-4,6-dimethyl-5-(((3-(piperidin-1-yl)propyl)amino)methyl)tetrahydro-2H-pyran-2-yl)oxy)-3,5,8,10,12,14-hexamethyl-15-oxo-1-oxa-6-azacyclopentadecan-11-yl)oxy)-3-hydroxy-6-methyltetrahydro-2H-pyran-4-yl)-1,3-dimethyl-3-phenylurea], the IC50 in the test with IL-6 (setting [1]) worked out at 36 µM; with TNF-α (setting [1]), 49 µM. In addition, the “IL-1β OS of LPS” value in the test with IL-1β is over 250 µM.
For `CCCNC[C@]1(O)[C@H](C)O[C@@H](O[C@H]2[C@H](C)[C@@H](O[C@@H]3O[C@H](C)C[C@H](N(C)C(=O)N(C)c4ccccn4)[C@H]3O)[C@](C)(O)C[C@@H](C)CN[C@H](C)[C@@H](O)[C@](C)(O)[C@@H](CC)OC(=O)[C@@H]2C)C[C@@]1(C)OC` [Example H-45, 1-((2S,3R,4S,6R)-2-(((2R,3S,4R,5R,8R,10R,11R,12S,13S,14R)-2-ethyl-3,4,10-trihydroxy-13-(((2R,4R,5S,6S)-5-hydroxy-4-methoxy-4,6-dimethyl-5-((propylamino)methyl)tetrahydro-2H-pyran-2-yl)oxy)-3,5,8,10,12,14-hexamethyl-15-oxo-1-oxa-6-azacyclopentadecan-11-yl)oxy)-3-hydroxy-6-methyltetrahydro-2H-pyran-4-yl)-1,3-dimethyl-3-(pyridin-2-yl)urea], the figures for the half-inhibitory concentration (IC50) in the test with IL-6 (setting [1]) and in the test with TNF-α (setting [1]) were 130 µM and 109 µM, respectively. Further, the “IL-1β OS of LPS” value in the test with IL-1β worked out at 250 µM.
In the case of `CCCNC[C@]1(O)[C@H](C)O[C@@H](O[C@H]2[C@H](C)[C@@H](O[C@@H]3O[C@H](C)C[C@H](N(C)C(=O)N(C)c4cncnc4)[C@H]3O)[C@](C)(O)C[C@@H](C)CN[C@H](C)[C@@H](O)[C@](C)(O)[C@@H](CC)OC(=O)[C@@H]2C)C[C@@]1(C)OC` [Example H-50, 1-((2S,3R,4S,6R)-2-(((2R,3S,4R,5R,8R,10R,11R,12S,13S,14R)-2-ethyl-3,4,10-trihydroxy-13-(((2R,4R,5S,6S)-5-hydroxy-4-methoxy-4,6-dimethyl-5-((propylamino)methyl)tetrahydro-2H-pyran-2-yl)oxy)-3,5,8,10,12,14-hexamethyl-15-oxo-1-oxa-6-azacyclopentadecan-11-yl)oxy)-3-hydroxy-6-methyltetrahydro-2H-pyran-4-yl)-1,3-dimethyl-3-(pyrimidin-5-yl)urea], the IC50 in the test with IL-6 (setting [1]) and in the test with TNF-α (setting [1]) was over 250 µM throughout. Also, in the test on IL-1β, the “IL-1β OS of LPS” value is over 250 µM.
On to `CCCNC[C@]1(O)[C@H](C)O[C@@H](O[C@H]2[C@H](C)[C@@H](O[C@@H]3O[C@H](C)C[C@H](N(C)C(=O)N(C)c4cnn(C)c4)[C@H]3O)[C@](C)(O)C[C@@H](C)CN[C@H](C)[C@@H](O)[C@](C)(O)[C@@H](CC)OC(=O)[C@@H]2C)C[C@@]1(C)OC` [Example H-58, 1-((2S,3R,4S,6R)-2-(((2R,3S,4R,5R,8R,10R,11R,12S,13S,14R)-2-ethyl-3,4,10-trihydroxy-13-(((2R,4R,5S,6S)-5-hydroxy-4-methoxy-4,6-dimethyl-5-((propylamino)methyl)tetrahydro-2H-pyran-2-yl)oxy)-3,5,8,10,12,14-hexamethyl-15-oxo-1-oxa-6-azacyclopentadecan-11-yl)oxy)-3-hydroxy-6-methyltetrahydro-2H-pyran-4-yl)-1,3-dimethyl-3-(1-methyl-1H-pyrazol-4-yl)urea], for which the IC50 with IL-6 and in the test on TNF-α was over 250 µM in each case. Besides, the “IL-1β OS of LPS” value in the test on IL-1β is over 250 µM.
For the compound `CC[C@H]1OC(=O)[C@H](C)[C@@H](O[C@H]2C[C@@](C)(OC)[C@](O)(CN)[C@H](C)O2)[C@H](C)[C@@H](O[C@@H]2O[C@H](C)C[C@H](N(C)C(=O)N(C)c3ccccc3)[C@H]2O)[C@](C)(O)C[C@@H](C)CN[C@H](C)[C@@H](O)[C@]1(C)O` [Example H-66, 1-((2S,3R,4S,6R)-2-(((2R,3S,4R,5R,8R,10R,11R,12S,13S,14R)-13-(((2R,4R,5S,6S)-5-(aminomethyl)-5-hydroxy-4-methoxy-4,6-dimethyltetrahydro-2H-pyran-2-yl)oxy)-2-ethyl-3,4,10-trihydroxy-3,5,8,10,12,14-hexamethyl-15-oxo-1-oxa-6-azacyclopentadecan-11-yl)oxy)-3-hydroxy-6-methyltetrahydro-2H-pyran-4-yl)-1,3-dimethyl-3-phenylurea], the IC50 was over 250 µM with IL-6 (setting [1]) and 106 µM in the test on TNF-α (setting [1]). Also, the “IL-1β OS of LPS” value with IL-1β turned out to be 250 µM.
Taken in the same sequence, the figures for `CCCNC[C@]1(O)[C@H](C)O[C@@H](O[C@H]2[C@H](C)[C@@H](O[C@@H]3O[C@H](C)C[C@H](N(CCC)C(=O)N(C)c4ccccc4)[C@H]3O)[C@](C)(O)C[C@@H](C)CN[C@H](C)[C@@H](O)[C@](C)(O)[C@@H](CC)OC(=O)[C@@H]2C)C[C@@]1(C)OC` [Example H-69, 1-((2S,3R,4S,6R)-2-(((2R,3S,4R,5R,8R,10R,11R,12S,13S,14R)-2-ethyl-3,4,10-trihydroxy-13-(((2R,4R,5S,6S)-5-hydroxy-4-methoxy-4,6-dimethyl-5-((propylamino)methyl)tetrahydro-2H-pyran-2-yl)oxy)-3,5,8,10,12,14-hexamethyl-15-oxo-1-oxa-6-azacyclopentadecan-11-yl)oxy)-3-hydroxy-6-methyltetrahydro-2H-pyran-4-yl)-3-methyl-3-phenyl-1-propylurea] were 8 µM, 14 µM and 6 µM.
`CCCNC[C@]1(O)[C@H](C)O[C@@H](O[C@H]2[C@H](C)[C@@H](O[C@@H]3O[C@H](C)C[C@H](N(CC(C)C)C(=O)N(C)c4ccccc4)[C@H]3O)[C@](C)(O)C[C@@H](C)CN[C@H](C)[C@@H](O)[C@](C)(O)[C@@H](CC)OC(=O)[C@@H]2C)C[C@@]1(C)OC` [Example H-70, 1-((2S,3R,4S,6R)-2-(((2R,3S,4R,5R,8R,10R,11R,12S,13S,14R)-2-ethyl-3,4,10-trihydroxy-13-(((2R,4R,5S,6S)-5-hydroxy-4-methoxy-4,6-dimethyl-5-((propylamino)methyl)tetrahydro-2H-pyran-2-yl)oxy)-3,5,8,10,12,14-hexamethyl-15-oxo-1-oxa-6-azacyclopentadecan-11-yl)oxy)-3-hydroxy-6-methyltetrahydro-2H-pyran-4-yl)-1-isobutyl-3-methyl-3-phenylurea]: the values for the IC50 in the test on IL-6 (setting [1]) and in the test with TNF-α (setting [1]) were 4 µM and 13 µM, respectively. Besides, the “IL-1β OS of LPS” value in the test on IL-1β was 6 µM.
Take `CCCNC[C@]1(O)[C@H](C)O[C@@H](O[C@H]2[C@H](C)[C@@H](O[C@@H]3O[C@H](C)C[C@H](N(Cc4cccnc4)C(=O)N(C)c4ccccc4)[C@H]3O)[C@](C)(O)C[C@@H](C)CN[C@H](C)[C@@H](O)[C@](C)(O)[C@@H](CC)OC(=O)[C@@H]2C)C[C@@]1(C)OC` [Example H-71, 1-((2S,3R,4S,6R)-2-(((2R,3S,4R,5R,8R,10R,11R,12S,13S,14R)-2-ethyl-3,4,10-trihydroxy-13-(((2R,4R,5S,6S)-5-hydroxy-4-methoxy-4,6-dimethyl-5-((propylamino)methyl)tetrahydro-2H-pyran-2-yl)oxy)-3,5,8,10,12,14-hexamethyl-15-oxo-1-oxa-6-azacyclopentadecan-11-yl)oxy)-3-hydroxy-6-methyltetrahydro-2H-pyran-4-yl)-3-methyl-3-phenyl-1-(pyridin-3-ylmethyl)urea]: the concentration for half-maximal inhibition (IC50) with IL-6 (setting [1]) was 35 µM; with TNF-α (setting [1]) it was 32 µM. Moreover, the “IL-1β OS of LPS” value in the test with IL-1β worked out at 16 µM.
On to `CCCNC[C@]1(O)[C@H](C)O[C@@H](O[C@H]2[C@H](C)[C@@H](O[C@@H]3O[C@H](C)C[C@H](N(C)C(=O)Nc4ccccc4OC)[C@H]3O)[C@](C)(O)C[C@@H](C)CN[C@H](C)[C@@H](O)[C@](C)(O)[C@@H](CC)OC(=O)[C@@H]2C)C[C@@]1(C)OC` [Example H-76, 1-((2S,3R,4S,6R)-2-(((2R,3S,4R,5R,8R,10R,11R,12S,13S,14R)-2-ethyl-3,4,10-trihydroxy-13-(((2R,4R,5S,6S)-5-hydroxy-4-methoxy-4,6-dimethyl-5-((propylamino)methyl)tetrahydro-2H-pyran-2-yl)oxy)-3,5,8,10,12,14-hexamethyl-15-oxo-1-oxa-6-azacyclopentadecan-11-yl)oxy)-3-hydroxy-6-methyltetrahydro-2H-pyran-4-yl)-3-(2-methoxyphenyl)-1-methylurea], for which the IC50 in the test on IL-6 (setting [1]) is over 500 µM; in the test with TNF-α (setting [1]), 179 µM. Moreover, in the test on IL-1β, the “IL-1β OS of LPS” value is 100 µM.
As for `CCCNC[C@]1(O)[C@H](C)O[C@@H](O[C@H]2[C@H](C)[C@@H](O[C@@H]3O[C@H](C)C[C@H](N(C)C(=O)Nc4ccccc4C)[C@H]3O)[C@](C)(O)C[C@@H](C)CN[C@H](C)[C@@H](O)[C@](C)(O)[C@@H](CC)OC(=O)[C@@H]2C)C[C@@]1(C)OC` [Example H-81, 1-((2S,3R,4S,6R)-2-(((2R,3S,4R,5R,8R,10R,11R,12S,13S,14R)-2-ethyl-3,4,10-trihydroxy-13-(((2R,4R,5S,6S)-5-hydroxy-4-methoxy-4,6-dimethyl-5-((propylamino)methyl)tetrahydro-2H-pyran-2-yl)oxy)-3,5,8,10,12,14-hexamethyl-15-oxo-1-oxa-6-azacyclopentadecan-11-yl)oxy)-3-hydroxy-6-methyltetrahydro-2H-pyran-4-yl)-1-methyl-3-(o-tolyl)urea], the IC50 in the test with IL-6 (setting [1]) is 47 µM; in the test on TNF-α (setting [1]), over 250 µM. Besides, the “IL-1β OS of LPS” value in the test with IL-1β stood at 39 µM.

The values above are taken from patent publication US12295936B2, “Immunomodulating urea azalides” (Zoetis Services LLC, priority 2020, dated 2025).
